Experiments:
Cataleptogenic activity = settings: rat, in vivo, ip; Wistar female rats; from total points of the maximum appearance of catatonia; read-out: Cataleptogenic Activity ED50
Protocol: (2) Cataleptogenic Activity
The test was performed according to the method described by W. Wirth et al. in "Archives Internationales de Pharmacodynamie et de Therapie", vol, 115, 1 ff (1958).
Groups of 5 Wistar female rats each were used. […] The ED50 was determined from total points of the maximum appearance of catatonia.

[1] = system: apomorphine-induced vomiting; experiment: Effect on apomorphine-induced vomiting; assay type: in vivo; settings: Canis lupus familiaris, po, 2 hours prior to apomorphine hydrochloride (0.1 mg/kg, s.c.); beagle dogs; vomiting checked for 2 hours
Protocol: (1) Effect on apomorphine-induced vomiting
The test was performed according to the method described by M. Nakanishi et al. in "Arzneimittel-Forschung", vol. 21, 391 ff (1971).
Groups of 5-10 beagle dogs of both sexes each were used. The test compound was administered orally 2 hours prior to the treatment with apomorphine hydrochloride (0.1 mg/kg, s.c.). The incidence of vomiting was checked for 2 hours, and the ED50 (50% effective dose) was determined.

In the case of CN(C)CCCN1c2ccccc2Sc2ccc(Cl)cc21 [Chlorpromazine, reference compound], the TD50 (Cataleptogenic activity) is reported as 12 mg/kg and the ED50 [1] is reported as 5.1 mg/kg.
In the case of Cl.Cl.O.O=C1NC2CCCCN2C12CCN(CCCN1c3ccccc3CCc3ccccc31)CC2 (centres unmarked) [Test Compound A, 1'-[3-(10,11-dihydro-5H-dibenzo[b,f]azepin-5-yl)propyl]-1,2,3,5,6,7,8,8a-octahydro-2-oxo-imidazo[1,2-a]pyridine-3-spiro-4'-piperidine dihydrochloride monohydrate], the TD50 (Cataleptogenic activity) is reported as > 50 mg/kg and the ED50 [1] is reported as 2.5 mg/kg.
In the case of Cl.Cl.O.O=C1NC2CCCCN2C12CCN(CCCN1c3ccccc3CCc3ccc(Cl)cc31)CC2 (centres unmarked) [Test Compound B, 1'-[3-(3-chloro-10,11-dihydro-5H-dibenz[b,f]azepin-5yl)propyl]-1,2,3,5,6,7,8,8a-octahydro-2-oxo-imidazo[1,2-a]pyridine-3spiro-4'-piperidine dihydrochloride monohydrate], the TD50 (Cataleptogenic activity) is reported as > 50 mg/kg and the ED50 [1] is reported as 0.5 mg/kg.
With Cl.Cl.O.O=C1N=C2CCCCN2C12CCN(CCCN1c3ccccc3CCc3ccccc31)CC2 [Test Compound C, 1'-[3-(10,11-dihydro-5H-dibenz[b,f]azepin-5-yl)propyl]-2,3,5,6,7,8-hexahydro-2-oxo-imidazo[1,2-a]pyridine-3-spiro-4'-piperidine dihydrochloride monohydrate] the TD50 (Cataleptogenic activity) was > 50 mg/kg and the ED50 [1] was 2 mg/kg.

Source: patent publication US4337260A, “Imidazopyridine-spiro-piperidine compounds” (Yoshitomi Pharmaceutical Industries, Ltd., priority 1981, dated 1982)
